Assay results: US8304401B2, “Compositions and methods for decreasing type III deiodinase activity to modulate adiposity and blood glucose levels” (Trustees of Dartmouth College, priority 2008, dated 2012)

Columns and labels:
D1 [1] = molecular target: T1, D1 (Homo sapiens, UniProt P49895); assay: Inhibition of D1-catalyzed rT3 deiodination; type: biochemical; settings: D1 much more sensitive to inhibition than D3
T1 sequence (P49895 1-249): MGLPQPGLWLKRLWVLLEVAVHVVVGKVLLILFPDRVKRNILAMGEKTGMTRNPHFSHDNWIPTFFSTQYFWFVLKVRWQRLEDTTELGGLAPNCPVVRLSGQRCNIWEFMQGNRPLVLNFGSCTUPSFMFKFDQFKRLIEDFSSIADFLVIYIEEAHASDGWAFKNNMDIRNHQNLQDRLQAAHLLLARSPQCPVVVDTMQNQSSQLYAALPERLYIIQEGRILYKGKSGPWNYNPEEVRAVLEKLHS
Excerpt: In addition to those specifically disclosed herein, additional D3 inhibitors can be identified by the generation of analogs or derivatives of known inhibitors, which can be used as lead compounds. […] Based upon such differences, lead compounds can be generated that have excellent specificity for specific deiodinases.

D1 [2] = molecular target: T1, D1; settings: competitive inhibitor; read-out: Ki, D1-catalyzed rT3 deiodination; cited from earlier work
D3 [3] = molecular target: T2, D3 (Homo sapiens, UniProt P55073); settings: read-out: Ki, D3-catalyzed T3 5 deiodination; competitive inhibitor; cited from earlier work
T2 sequence (P55073 1-304): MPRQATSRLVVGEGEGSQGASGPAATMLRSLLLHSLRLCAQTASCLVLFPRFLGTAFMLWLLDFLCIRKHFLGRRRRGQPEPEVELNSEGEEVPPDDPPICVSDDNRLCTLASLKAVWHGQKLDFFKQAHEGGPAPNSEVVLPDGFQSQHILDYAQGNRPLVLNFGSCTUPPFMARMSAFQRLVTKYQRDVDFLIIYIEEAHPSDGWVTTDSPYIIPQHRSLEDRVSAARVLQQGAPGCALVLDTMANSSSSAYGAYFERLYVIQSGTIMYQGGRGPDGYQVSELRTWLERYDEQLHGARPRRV

D3 [4] = settings: cited from earlier work
[5] = Wild-type mice made hypothyroid with perchlorate, epididymal fat pad weight; type: in vivo, mouse; settings: 0.04% perchlorate for two months, relative weight of epididymal fat pad, P<0.01
Excerpt: Analysis of relative weights (compared to total body weight) of male epididymal (EPI) and female parametrial white adipose tissue (WAT) indicated a significant reduction in adult D3KO mice (20% reduction in males and 35% in females, P<0.001, see FIG. 1). This reduction was more marked in aged D3KO mice (60%, P<0.001). […] These alterations were not due to the moderate hypothyroidism present in the D3KO mouse, as wild-type mice made hypothyroid with 0.04% perchlorate to a degree similar to that in D3KO mice manifested a 15% increase in EPI WAT weight (P<0.01, FIG. 3). Thus, the decreased adiposity of the D3KO mouse is both unexpected and even more striking in degree.

## OC[C@@H](O)[C@@H](O)[C@H](O)[C@@H](O)C=S.[Au] [gold thioglucose]
D1 [1]
  difference in Ki between D1 and D3 inhibition: approximately 1000 fold
D1 [2]
  Ki: 6 nM
D3 [3]
  Ki: 5.2 µM

## CCC(Cc1c(I)cc(I)c(N)c1I)C(=O)O (stereo not drawn) [iopanoic acid]
D3 [4]
  D3 inhibitory activity: effectively inhibit D3 activity

## O=C(O)CI [iodoacetate]
D3 [4]
  D3 inhibitory activity: exhibits D3 inhibitory activity

## [O-][Cl+3]([O-])([O-])O [perchlorate]
[5]
  increase in EPI WAT weight: 15%
